Converted amounts (≈) assume the structure as drawn.
Columns and labels:
[1] = molecular target: Phosphatidylinositol 4,5-bisphosphate 3-kinase catalytic subunit beta isoform (Homo sapiens, UniProt P42338); test: Inhibition of human recombinant PI3K p110beta expressed in Sf21 insect cells using phosphatidylinositol as substrate after 1 hr by phosphoimaging
[2] = cells; settings: Homo sapiens, NZB5
[3] = molecular target: Phosphatidylinositol 4,5-bisphosphate 3-kinase catalytic subunit alpha isoform (Mus musculus, UniProt P42337); test: Inhibition of mouse recombinant PI3K p110alpha expressed in Sf21 insect cells using phosphatidylinositol as substrate after 1 hr by phosphoimaging
Phosphatidylinositol 4,5-bisphosphate 3-kinase catalytic subunit alpha isoform (Mus musculus, UniProt P42337), sequence (P42337 whole entry, canonical isoform): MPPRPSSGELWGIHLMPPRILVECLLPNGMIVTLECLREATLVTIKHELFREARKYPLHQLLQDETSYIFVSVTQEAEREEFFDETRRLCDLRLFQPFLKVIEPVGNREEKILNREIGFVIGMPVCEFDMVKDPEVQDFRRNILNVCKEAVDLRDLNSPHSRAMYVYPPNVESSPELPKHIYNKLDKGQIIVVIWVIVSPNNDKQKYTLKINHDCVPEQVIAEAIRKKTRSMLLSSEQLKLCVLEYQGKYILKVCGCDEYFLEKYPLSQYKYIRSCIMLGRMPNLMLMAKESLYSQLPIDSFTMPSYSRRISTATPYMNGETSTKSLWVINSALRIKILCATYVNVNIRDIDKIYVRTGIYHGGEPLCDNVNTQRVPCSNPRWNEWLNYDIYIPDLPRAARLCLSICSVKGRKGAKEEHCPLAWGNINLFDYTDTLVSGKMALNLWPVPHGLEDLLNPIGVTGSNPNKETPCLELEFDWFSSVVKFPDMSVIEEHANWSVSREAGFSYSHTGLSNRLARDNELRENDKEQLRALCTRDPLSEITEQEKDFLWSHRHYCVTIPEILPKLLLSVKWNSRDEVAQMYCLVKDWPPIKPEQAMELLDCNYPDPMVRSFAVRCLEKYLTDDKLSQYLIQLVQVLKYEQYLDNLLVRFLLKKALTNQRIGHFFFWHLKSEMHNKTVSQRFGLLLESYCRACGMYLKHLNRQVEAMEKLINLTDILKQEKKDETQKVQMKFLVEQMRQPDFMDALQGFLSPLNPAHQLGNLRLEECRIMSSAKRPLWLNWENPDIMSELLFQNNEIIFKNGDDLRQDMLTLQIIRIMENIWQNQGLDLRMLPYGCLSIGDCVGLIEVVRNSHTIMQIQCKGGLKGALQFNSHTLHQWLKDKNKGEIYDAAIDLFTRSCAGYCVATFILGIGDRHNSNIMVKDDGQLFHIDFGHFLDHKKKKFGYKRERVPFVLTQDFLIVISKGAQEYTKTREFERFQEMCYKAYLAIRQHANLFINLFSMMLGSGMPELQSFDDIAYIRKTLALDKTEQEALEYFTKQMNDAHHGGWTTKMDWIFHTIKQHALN

[4] = Inhibition of bovine recombinant PI3K p110delta expressed in Sf21 insect cells using phosphatidylinositol as substrate after 1 hr by phosphoimaging; set-up: species or system Bos taurus
[5] = cells; settings: Homo sapiens, NZOV9
[6] = cells; settings: Homo sapiens, HCT-116
[7] = cells; settings: Homo sapiens, HCT-116; remark: listed apart in the source
[8] = molecular target: T1, Phosphatidylinositol 4,5-bisphosphate 3-kinase catalytic subunit alpha isoform (Homo sapiens, UniProt P42336); test: Inhibition of PIK3CA-mediated cell signaling in PTEN-deficient human U87MG cells assessed as inhibition of insulin-induced pAkt/PKB phosphorylation at Thr308 treated for 15 mins before insulin challenge measured after 5 mins by immunoblotting; format: cell-based, U-87MG ATCC
T1 sequence (P42336 whole entry, canonical isoform): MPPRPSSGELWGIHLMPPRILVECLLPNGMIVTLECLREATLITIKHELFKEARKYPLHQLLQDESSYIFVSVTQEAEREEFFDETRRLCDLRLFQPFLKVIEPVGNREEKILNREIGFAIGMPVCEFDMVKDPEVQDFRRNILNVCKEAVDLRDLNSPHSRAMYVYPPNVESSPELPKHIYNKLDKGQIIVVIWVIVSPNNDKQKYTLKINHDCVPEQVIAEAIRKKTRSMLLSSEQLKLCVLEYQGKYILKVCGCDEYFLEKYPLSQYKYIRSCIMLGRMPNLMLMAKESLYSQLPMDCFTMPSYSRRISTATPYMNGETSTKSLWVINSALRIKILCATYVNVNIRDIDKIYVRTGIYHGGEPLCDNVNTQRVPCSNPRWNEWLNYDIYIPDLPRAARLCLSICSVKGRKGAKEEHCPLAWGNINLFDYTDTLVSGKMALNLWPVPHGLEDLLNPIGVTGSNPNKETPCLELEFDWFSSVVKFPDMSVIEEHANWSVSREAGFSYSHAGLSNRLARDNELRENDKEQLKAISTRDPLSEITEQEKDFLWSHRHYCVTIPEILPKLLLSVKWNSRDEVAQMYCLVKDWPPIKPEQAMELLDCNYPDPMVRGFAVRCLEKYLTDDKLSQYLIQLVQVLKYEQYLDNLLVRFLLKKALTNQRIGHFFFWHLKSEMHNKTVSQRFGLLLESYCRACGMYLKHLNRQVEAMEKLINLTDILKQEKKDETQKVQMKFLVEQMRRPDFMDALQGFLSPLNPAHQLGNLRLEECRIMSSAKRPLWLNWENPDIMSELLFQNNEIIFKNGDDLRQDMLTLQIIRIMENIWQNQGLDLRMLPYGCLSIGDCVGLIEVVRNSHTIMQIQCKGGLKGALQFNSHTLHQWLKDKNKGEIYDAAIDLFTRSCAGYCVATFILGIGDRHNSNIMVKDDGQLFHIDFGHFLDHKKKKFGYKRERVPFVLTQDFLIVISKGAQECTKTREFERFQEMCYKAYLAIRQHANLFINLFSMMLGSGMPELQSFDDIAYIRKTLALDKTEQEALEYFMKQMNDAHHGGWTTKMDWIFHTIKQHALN

[9] = molecular target: T1, Phosphatidylinositol 4,5-bisphosphate 3-kinase catalytic subunit alpha isoform; test: Inhibition of PIK3CA-mediated cell signaling in PTEN-deficient human U87MG cells assessed as inhibition of insulin-induced pAkt/PKB phosphorylation at Ser473 treated for 15 mins before insulin challenge measured after 5 mins by immunoblotting; format: cell-based, U-87MG ATCC
[10] = Aqueous solubility of the compound in water after 15 mins by HPLC analysis; settings: aqueous medium

Phosphatidylinositol 4,5-bisphosphate 3-kinase catalytic subunit beta isoform, sequence (P42338 whole entry, canonical isoform): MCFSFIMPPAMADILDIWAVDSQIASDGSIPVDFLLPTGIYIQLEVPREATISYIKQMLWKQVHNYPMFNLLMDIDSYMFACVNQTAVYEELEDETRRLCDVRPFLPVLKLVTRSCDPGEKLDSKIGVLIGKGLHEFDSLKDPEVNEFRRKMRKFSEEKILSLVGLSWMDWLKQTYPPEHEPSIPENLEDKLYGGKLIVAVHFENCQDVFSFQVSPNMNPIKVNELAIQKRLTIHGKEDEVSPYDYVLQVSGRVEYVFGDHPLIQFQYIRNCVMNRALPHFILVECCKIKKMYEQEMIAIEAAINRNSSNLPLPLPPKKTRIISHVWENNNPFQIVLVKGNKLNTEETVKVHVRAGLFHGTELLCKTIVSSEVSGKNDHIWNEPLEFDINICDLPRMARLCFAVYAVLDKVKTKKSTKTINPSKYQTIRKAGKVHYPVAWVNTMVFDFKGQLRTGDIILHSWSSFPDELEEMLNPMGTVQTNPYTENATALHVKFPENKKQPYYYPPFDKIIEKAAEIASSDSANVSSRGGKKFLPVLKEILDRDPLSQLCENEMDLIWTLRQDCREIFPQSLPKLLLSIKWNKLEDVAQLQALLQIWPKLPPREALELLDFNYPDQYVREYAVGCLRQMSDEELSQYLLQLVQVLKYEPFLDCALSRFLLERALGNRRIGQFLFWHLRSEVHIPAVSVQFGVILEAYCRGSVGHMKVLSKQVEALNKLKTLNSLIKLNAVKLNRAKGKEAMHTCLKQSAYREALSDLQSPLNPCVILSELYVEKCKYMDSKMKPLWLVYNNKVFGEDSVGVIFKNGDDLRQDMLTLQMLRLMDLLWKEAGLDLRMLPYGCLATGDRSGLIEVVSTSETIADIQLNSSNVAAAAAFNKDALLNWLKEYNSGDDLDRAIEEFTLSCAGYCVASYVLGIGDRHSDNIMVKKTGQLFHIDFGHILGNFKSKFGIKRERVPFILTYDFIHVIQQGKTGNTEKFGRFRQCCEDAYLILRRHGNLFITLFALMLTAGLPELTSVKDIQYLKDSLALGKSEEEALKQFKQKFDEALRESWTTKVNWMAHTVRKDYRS

Structure (SMILES)	IC50 [1]	IC50 [2]	IC50 [3]	IC50 [5]	IC50 [6]	IC50 [7]	IC50 [8]	IC50 [9]	solubility at […] [10]	IC50 [4]
C[S+]([O-])Cc1nc2ccccc2n1-c1nc(N2CCOCC2)nc(N2CCOCC2)n1 (centres undefined)	230 nM	400 nM	590 nM	490 nM	–	–	–	–	–	35 nM
Cc1nc2ccccc2n1-c1nc(N2CCOCC2)nc(N2CCOCC2)n1	289 nM	280 nM	143 nM	600 nM	–	–	–	–	–	35 nM
COc1cccc2c1nc(C(F)F)n2-c1cc(N2CCOCC2)nc(N2CCOCC2)n1	40 nM	–	4 nM	–	–	–	–	–	–	14 nM
COc1cccc2c1nc(C(F)F)n2-c1nc(N2CCOCC2)cc(N2CCOCC2)n1	35 nM	60 nM	5.1 nM	30 nM	–	–	–	–	–	18 nM
FC(F)(F)c1nc2ccccc2n1-c1nc(N2CCOCC2)nc(N2CCOCC2)n1	461 nM	900 nM	202 nM	700 nM	–	–	–	–	–	70 nM
CS(=O)(=O)c1nc2ccccc2n1-c1nc(N2CCOCC2)nc(N2CCOCC2)n1	383 nM	10000 nM	203 nM	2000 nM	–	–	–	–	–	76 nM
FC(F)c1nc2ccccc2n1-c1nc(N2CCOCC2)cc(N2CCOCC2)n1	72 nM	120 nM	30 nM	260 nM	–	–	–	–	–	10 nM
FC(F)c1nc2c3c(ccc2n1-c1nc(N2CCOCC2)nc(N2CCOCC2)n1)OCO3	47 nM	130 nM	550 nM	40 nM	–	–	–	–	–	39 nM
OCc1nc2ccccc2n1-c1nc(N2CCOCC2)nc(N2CCOCC2)n1	> 1000 nM	750 nM	> 1000 nM	5500 nM	–	–	–	–	–	5470 nM
CSc1nc2ccccc2n1-c1nc(N2CCOCC2)nc(N2CCOCC2)n1	> 1000 nM	200 nM	2900 nM	200 nM	–	–	–	–	–	270 nM
COc1cncc2c1nc(C(F)F)n2-c1nc(N2CCOCC2)nc(N2CCOCC2)n1	1030 nM	5600 nM	1290 nM	2600 nM	–	–	–	–	–	1600 nM
COc1cc(OC)c2nc(C(F)F)n(-c3nc(N4CCOCC4)nc(N4CCOCC4)n3)c2c1	118 nM	95 nM	58 nM	59 nM	–	–	–	–	–	12.5 nM
COc1cc(N(C)C)cc2c1nc(C(F)F)n2-c1nc(N2CCOCC2)nc(N2CCOCC2)n1	18.5 nM	130 nM	8 nM	150 nM	–	–	–	–	–	6.8 nM
FCc1nc2ccccc2n1-c1nc(N2CCOCC2)nc(N2CCOCC2)n1	53 nM	390 nM	34 nM	350 nM	–	–	–	–	–	13 nM
Oc1cccc2c1nc(C(F)F)n2-c1nc(N2CCOCC2)cc(N2CCOCC2)n1	0.81 nM	100 nM	1.5 nM	–	–	–	–	–	–	0.27 nM
COc1cc(N)cc2c1nc(C(F)F)n2-c1nc(N2CCOCC2)nc(N2CCOCC2)n1.CS(=O)(=O)O	–	–	–	–	–	–	–	–	4.2 µg/mL	–
CS(=O)(=O)Cc1nc2ccccc2n1-c1nc(N2CCOCC2)nc(N2CCOCC2)n1	250 nM	250 nM	480 nM	440 nM	–	–	–	–	–	54 nM
CS(=O)(=O)O.Cn1c(=O)n(-c2ccc(C(C)(C)C#N)cc2)c2c3cc(-c4cnc5ccccc5c4)ccc3ncc21	–	–	–	–	–	–	–	–	11.3 µg/mL	–
c1ccc2c(c1)ncn2-c1nc(N2CCOCC2)nc(N2CCOCC2)n1	1540 nM	1500 nM	265 nM	300 nM	–	–	–	–	–	142 nM
CSCc1nc2ccccc2n1-c1nc(N2CCOCC2)nc(N2CCOCC2)n1	39 nM	83 nM	170 nM	86 nM	–	–	–	–	–	41 nM
FC(F)c1nc2ccccc2n1-c1cc(N2CCOCC2)nc(N2CCOCC2)n1	170 nM	–	88 nM	300 nM	–	–	–	–	–	13 nM

More lines, main results first:

IC50 [1]	IC50 [2]	IC50 [3]	IC50 [5]	IC50 [6]	IC50 [7]	IC50 [8]	IC50 [9]	solubility at […] [10]	Structure (SMILES)	IC50 [4]
310 nM	2800 nM	9.3 nM	470 nM	–	–	–	–	–	COC(=O)c1cccc2c1nc(C(F)F)n2-c1nc(N2CCOCC2)nc(N2CCOCC2)n1	65 nM
0.91 nM	390 nM	2 nM	16 nM	–	–	–	–	–	CNc1cc(OC)c2nc(C(F)F)n(-c3nc(N4CCOCC4)nc(N4CCOCC4)n3)c2c1	0.52 nM
> 1000 nM	760 nM	> 1000 nM	–	–	–	–	–	–	NC(=O)c1cccc2c1nc(C(F)F)n2-c1nc(N2CCOCC2)nc(N2CCOCC2)n1	1000 nM
68 nM	300 nM	27 nM	170 nM	–	–	–	–	–	OCc1cccc2c1nc(C(F)F)n2-c1nc(N2CCOCC2)nc(N2CCOCC2)n1	12 nM
25 nM	50 nM	2.7 nM	10 nM	37 nM	25 nM	28 nM	55 nM	0.08 µg/mL (≈ 0.179 µM)	COc1cccc2c1nc(C(F)F)n2-c1nc(N2CCOCC2)nc(N2CCOCC2)n1	3.9 nM
41 nM	50 nM	4.8 nM	80 nM	–	–	–	–	–	Nc1cccc2c1nc(C(F)F)n2-c1nc(N2CCOCC2)nc(N2CCOCC2)n1	0.85 nM
480 nM	110 nM	210 nM	260 nM	–	–	–	–	–	CNc1cccc2c1nc(C(F)F)n2-c1nc(N2CCOCC2)nc(N2CCOCC2)n1	67 nM
518 nM	70 nM	16 nM	50 nM	–	–	–	–	–	CCCOc1cccc2c1nc(C(F)F)n2-c1nc(N2CCOCC2)nc(N2CCOCC2)n1	95 nM
> 1000 nM	60 nM	5400 nM	2540 nM	–	–	–	–	–	CN(C)c1cccc2c1nc(C(F)F)n2-c1nc(N2CCOCC2)nc(N2CCOCC2)n1	539 nM
> 1000 nM	480 nM	296 nM	50 nM	–	–	–	–	–	CNC(=O)c1cccc2c1nc(C(F)F)n2-c1nc(N2CCOCC2)nc(N2CCOCC2)n1	1000 nM
104 nM	70 nM	2.7 nM	40 nM	–	–	–	–	–	CCOc1cccc2c1nc(C(F)F)n2-c1nc(N2CCOCC2)nc(N2CCOCC2)n1	5.5 nM
570 nM	170 nM	294 nM	130 nM	–	–	–	–	–	CS(=O)(=O)Oc1cccc2c1nc(C(F)F)n2-c1nc(N2CCOCC2)nc(N2CCOCC2)n1	158 nM
2400 nM	230 nM	–	210 nM	–	–	–	–	–	CCCCOc1cccc2c1nc(C(F)F)n2-c1nc(N2CCOCC2)nc(N2CCOCC2)n1	156 nM
2100 nM	70 nM	364 nM	280 nM	–	–	–	–	–	CC(C)Oc1cccc2c1nc(C(F)F)n2-c1nc(N2CCOCC2)nc(N2CCOCC2)n1	430 nM
> 1000 nM	730 nM	> 1000 nM	240 nM	–	–	–	–	–	CN(C)C(=O)c1cccc2c1nc(C(F)F)n2-c1nc(N2CCOCC2)nc(N2CCOCC2)n1	> 1000 nM
94 nM	–	–	11 nM	–	–	–	–	–	COc1c(O)ccc2c1nc(C(F)F)n2-c1nc(N2CCOCC2)nc(N2CCOCC2)n1	1.8 nM
> 1000 nM	> 20000 nM	61 nM	> 20000 nM	–	–	–	–	–	N#Cc1cccc2c1nc(C(F)F)n2-c1nc(N2CCOCC2)nc(N2CCOCC2)n1	66 nM
801 nM	20 nM	335 nM	36 nM	–	–	–	–	–	COc1ccc2c(nc(C(F)F)n2-c2nc(N3CCOCC3)nc(N3CCOCC3)n2)c1OC	258 nM

From ChEMBL document CHEMBL1909493, “Synthesis and biological evaluation of novel analogues of the pan class I phosphatidylinositol 3-kinase (PI3K) inhibitor 2-(difluoromethyl)-1-[4,6-di(4-morpholinyl)-1,3,5-triazin-2-yl]-1H-benzimidazole (ZSTK474)” (J Med Chem, 2011)
